These compounds were tested against T1, Dipeptidyl peptidase 3 (Bos mutus) (UniProt L8I2E6) (assay: Inhibition of Capra hircus (goat) brain DPP-3 using Arg-Arg-4mbetaNA as substrate assessed as liberation of 4mbetaNA from substrate). Conditions: target entry is the homologue from another species.
T1 sequence (whole entry): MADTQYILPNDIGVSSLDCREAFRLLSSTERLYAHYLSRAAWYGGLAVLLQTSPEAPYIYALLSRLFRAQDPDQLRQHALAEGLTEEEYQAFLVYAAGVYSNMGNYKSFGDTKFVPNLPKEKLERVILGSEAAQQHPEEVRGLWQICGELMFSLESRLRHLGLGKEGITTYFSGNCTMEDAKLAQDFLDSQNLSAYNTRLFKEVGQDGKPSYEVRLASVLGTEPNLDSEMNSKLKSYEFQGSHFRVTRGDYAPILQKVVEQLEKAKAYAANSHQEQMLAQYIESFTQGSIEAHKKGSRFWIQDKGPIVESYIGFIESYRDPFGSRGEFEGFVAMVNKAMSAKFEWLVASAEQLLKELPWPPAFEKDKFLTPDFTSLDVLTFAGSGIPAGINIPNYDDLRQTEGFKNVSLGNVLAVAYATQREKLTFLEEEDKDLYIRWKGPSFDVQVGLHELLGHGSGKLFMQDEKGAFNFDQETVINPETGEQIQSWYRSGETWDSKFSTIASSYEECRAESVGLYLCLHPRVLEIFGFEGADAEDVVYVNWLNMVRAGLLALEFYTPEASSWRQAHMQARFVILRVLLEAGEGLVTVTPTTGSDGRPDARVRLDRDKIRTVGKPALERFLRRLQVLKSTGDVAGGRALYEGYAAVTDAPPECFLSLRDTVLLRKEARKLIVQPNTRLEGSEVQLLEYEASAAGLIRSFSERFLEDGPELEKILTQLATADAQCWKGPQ

Row | Compound | inhibition [%]
1 | CS(=O)(=O)c1ccc(C2=C(c3ccccc3)C(=O)OC2)cc1 | 71
2 | CC(=O)Nc1ccc(O)cc1 | 96
3 | O=C(O)Cc1ccccc1Nc1c(Cl)cccc1Cl | 85

Source: ChEMBL document CHEMBL3045480, “Goat brain enkephalin degrading enzyme: interaction with analgesic and antihypertensive drugs” (Med Chem Res, 2011)
